Results from US7041701B2, “Triterpenoid derivatives” (Univerzita Palackeho V Olomouci, priority 2000, dated 2006).
Where two headings read alike, the source gives them in different places.

Assays:
B16 mouse melanoma = assay: MTT cytotoxicity assay, B16; type: cell-based; settings: 72 hours, read-out: TCS50
Excerpt: (§1) One of the parameters used as the basis for colorimetric assays is the metabolic activity of viable cells. For example, a microtiter assay which uses the tetrazolium salt MTT is now widely used to quantitate cell proliferation and cytotoxicity [Hajdúch M, Mihál V, Minarík J, Fáber E, Safárová M, Weigl E, Antálek P.: Cytotechnology, 1996, 19, 243–245]. For instance, this assay is used in drug screening programs and in chemosensitivity testing. Because tetrazolium salts are cleaved only by metabolically active cells, these assays exclusively detect viable cells. In the case of the MTT assay, yellow soluble tetrazolium salt is reduced to a coloured water-insoluble formazan salt. After it is solubilized, the formazan formed can easily and rapidly be quantified in a conventional ELISA plate reader at 570 nm (maximum absorbancy). The quantity of reduced formazan corresponds to the number of vital cells in the culture. […]
(§2) The cell suspensions that were prepared and diluted according to the particular cell type and the expected target cell density (2,500–30,000 cells per well based on cell growth characteristics) were added by pipette (80 μl) into 96/well microtiter plates. […] Usually, test compounds were evaluated at six 4-fold dilutions. […] The tumour cell survival (TCS) was calculated using the following equitation: TCS=(ODdrug exposed well/mean ODcontrol wells)×100%. […]

[1] = test system: B16F mouse melanoma, metastatic; assay: MTT cytotoxicity assay, B16F; type: cell-based; settings: 72 hours, read-out: TCS50
Excerpt: as §1, §2

[2] = test system: SW620 human colon cancer, metastasis; assay: MTT cytotoxicity assay, SW620; type: cell-based; settings: 72 hours, read-out: TCS50
Excerpt: as §1, §2

U87MG human glioblastoma = assay: MTT cytotoxicity assay, U87MG; type: cell-based; settings: 72 hours, read-out: TCS50
Excerpt: as §1, §2

[3] = test system: DU145 human prostate cancer, androgen independent, Rb−/−; assay: MTT cytotoxicity assay, DU145; type: cell-based; settings: 72 hours, read-out: TCS50
Excerpt: as §1, §2

[4] = test system: Caco-2 human colon cancer; assay: MTT cytotoxicity assay, Caco-2; type: cell-based; settings: 72 hours, read-out: TCS50
Excerpt: as §1, §2

[5] = test system: K562-GEM human promyelocytic leukemia, gemcitabin resistant; assay: MTT cytotoxicity assay, K562-GEM; type: cell-based; settings: 72 hours, read-out: TCS50
Excerpt: as §1, §2

[6] = test system: K562-ARA-C human promyelocytic leukemia, cytarabin resistant; assay: MTT cytotoxicity assay, K562-ARA-C; type: cell-based; settings: 72 hours, read-out: TCS50
Excerpt: as §1, §2

[7] = test system: CEM human T-lymphoblastic leukemia; assay: MTT cytotoxicity screening assay, CEM; type: cell-based
Excerpt: One of the parameters used as the basis for colorimetric assays is the metabolic activity of viable cells. For example, a microtiter assay which uses the tetrazolium salt MTT is now widely used to quantitate cell proliferation and cytotoxicity [Hajdúch M, Mihál V, Minarík J, Fáber E, Safárová M, Weigl E, Antálek P.: Cytotechnology, 1996, 19, 243–245]. For instance, this assay is used in drug screening programs and in chemosensitivity testing. Because tetrazolium salts are cleaved only by metabolically active cells, these assays exclusively detect viable cells. In the case of the MTT assay, yellow soluble tetrazolium salt is reduced to a coloured water-insoluble formazan salt. After it is solubilized, the formazan formed can easily and rapidly be quantified in a conventional ELISA plate reader at 570 nm (maximum absorbancy). The quantity of reduced formazan corresponds to the number of vital cells in the culture.
Human T-lymphoblastic leukaemia cell line CEM was used for routine screening of these compounds. […] The cells were maintained in Nunc/Corning 80 cm^2 plastic tissue culture flasks and cultured in cell culture medium (DMEM with 5 g/l glucose, 2 mM glutamine, 100 U/ml penicillin, 100 μg/ml streptomycin, 10% foetal calf serum and sodium bicarbonate). Individual compounds were dissolved in 10% diiethylsulfoxide/saline, pH 8.0.
The cell suspensions that were prepared and diluted according to the particular cell type and the expected target cell density (2,500–30,000 cells per well based on cell growth characteristics) were added by pipette (80 μl) into 96/well microtiter plates. Inoculates were allowed a pre-incubation period of 24 hours at 37° C. and 5% CO2 for stabilisation. Four-fold dilutions of the intended test concentration were added at time zero in 20 μl aliquots to the microtiter plate wells. Usually, test compounds were evaluated at six 4-fold dilutions. In routine testing, the highest well concentration was 250 μM, but it may differ, depending on the agent. All drug concentrations were examined in duplicate. Incubations of cells with the test compounds lasted for 72 hours at 37° C., in 5% CO2 atmosphere and 100% humidity. At the end of the incubation period, the cells were assayed by using the MTT assay. […] After this incubation period, formazan was solubilized by the addition of 100 μl/well of 10% SDS in water (pH=5.5) followed by further incubation at 37° C. overnight The optical density (OD) was measured at 540 nm with the Labsystem iEMS Reader MF(UK). The tumour cell survival (TCS) was calculated using the following equitation: TCS=(ODdrug exposed well/mean ODcontrol wells)×100%. The TCS50 value, the drug concentration lethal to 50% of the tumour cells, was calculated from the obtained dose response curves. […]

[8] = test system: CEM-DNR 1/C2 human T-lymphoblastic leukemia, daunorubicin resistant; assay: MTT cytotoxicity assay, CEM-DNR 1/C2; type: cell-based; settings: 72 hours, read-out: TCS50
Excerpt: as §1, §2

[9] = test system: CEM-DNR bulk human T-lymphoblastic leukemia, daunorubicin resistant; assay: MTT cytotoxicity assay, CEM-DNR bulk; type: cell-based; settings: 72 hours, read-out: TCS50
Excerpt: as §1, §2

[10] = test system: CEM-VCR bulk human T-lymphoblastic leukemia, vincristin resistant; assay: MTT cytotoxicity assay, CEM-VCR bulk; type: cell-based; settings: 72 hours, read-out: TCS50
Excerpt: as §1, §2

CEM cells = assay: Flow cytometry of total DNA content (cell cycle, apoptosis) in CEM cells; type: cell-based, human
Description: Hypophosphorylation of Rb protein is accompanied with cell cycle block on the G1/S transition. To investigate whether incubation of tumour cells with betulinines will result in cell cycle block and/or apoptosis, a flow-cytometry study was performed with measurement of total DNA content in CEM cells treated with/without I.3. Taxol (paclitaxel) was used as a positive control, since this drug is known to result in the cumulation of cells in the G2 phase.
Briefly, CEM cells were cultured in Dulbeco's modified essential medium with 4.5 g dextrose/l, 10% of foetal calf serum, 2 mM glutamine, 100 U/ml penicillin and 100 μg/ml streptomycin with/without the indicated concentrations of paclitaxel or I.3 (FIG. 4A). At selected time points, cells were harvested, washed in ice cold Hank's balanced salt solution (HBSS) and fixed in 70% ethanol at −20° C. overnight. The next day, ethanol was removed by centrifugation, cells were washed twice in HBSS and a cellular pellet (10^6 cells) was reconstituted in staining solution (propidium iodide 60 μg/ml, DNA-se free RNA-se 175 U/ml in HBSS) for 15 minutes at 37° C. The DNA content of individual cells was analyzed on flow cytometer Excalibur (Becton and Dickinson) at excitation wavelength of 488 nm.

Structure (SMILES): CC(=O)OC[C@@]1(C(=O)O)CC[C@]2(C)[C@H](CC[C@@H]3[C@@]4(C)CC[C@H](OC(C)=O)C(C)(C)[C@@H]4CC[C@]32C)C1=O [I.3, 3β,28-diacetoxy-18-oxo-19,20,21,29,30-pentanorlupan-22-oic acid]
- IC50 (B16 mouse melanoma): 2100 nM
- IC50 [1]: 4700 nM
- IC50 [2]: 1200 nM
- IC50 (U87MG human glioblastoma): 5100 nM
- IC50 [3]: 800 nM
- IC50 [4]: 3000 nM
- IC50 [5]: 900 nM
- IC50 [6]: 600 nM
- IC50 ([7]; CEM cells, as stated in the histone acetylation study, read-out: IC50): 2000 nM
- IC50 ([7]; CEM, MTT assay, 72 hours, read-out: TCS50): 1000 nM
- IC50 [8]: 600 nM
- IC50 [9]: 1100 nM
- IC50 [10]: 2500 nM
- cell cycle distribution (CEM cells; propidium iodide flow cytometry (FIG. 4A)): induces cumulation of cells in G0/G1 phases
- induction of apoptosis (sub-G1 cells) (CEM cells; propidium iodide flow cytometry (FIG. 4B)): rapid apoptosis
